# Assay results reported in EP0620225B1, “Cephalosporin derivatives” (Basilea Pharmaceutica AG, priority 1993, dated 1994).
# Counter-ions that a name gives are not always drawn.
# Legend:
# Ps. aeruginosa 5712 = experiment: MIC, agar dilution method in Mueller Hinton agar; assay type: cell-based; settings: Pseudomonas aeruginosa, read-out: Minimum Inhibiting Concentration Values
# Experimental: (§1) In vitro activity was determined by minimum inhibitory concentration in a microorganism spectum by the agar dilution method in Mueller Hinton agar.
# E. coli ATCC 25922 = experiment: MIC, agar dilution method in Mueller Hinton agar; assay type: cell-based; settings: Escherichia coli, ATCC25922, read-out: Minimum Inhibiting Concentration Values
# Experimental: as §1
# Staph. aureus ATCC 29213 = experiment: MIC, agar dilution method in Mueller Hinton agar; assay type: cell-based; settings: Staphylococcus aureus, ATCC29213, read-out: Minimum Inhibiting Concentration Values
# Experimental: as §1
# Str. pneumoniae 6301 = experiment: MIC, agar dilution method in Mueller Hinton agar; assay type: cell-based; settings: Streptococcus pneumoniae; Str. pneumoniae 6301; read-out: Minimum Inhibiting Concentration Values
# Experimental: as §1
# E. coli TEM-1 = experiment: MIC, agar dilution method in Mueller Hinton agar; assay type: cell-based; settings: Escherichia coli, TEM1, read-out: Minimum Inhibiting Concentration Values
# Experimental: as §1
# Str. pyogenes 4 = experiment: MIC, agar dilution method in Mueller Hinton agar; assay type: cell-based; settings: Streptococcus pyogenes, read-out: Minimum Inhibiting Concentration Values
# Experimental: as §1
# Prot. vulgaris ATCC 6380 = experiment: MIC, agar dilution method in Mueller Hinton agar; assay type: cell-based; settings: Proteus vulgaris, ATCC6380, read-out: Minimum Inhibiting Concentration Values
# Experimental: as §1
# [1] = test system: Ps. aeruginosa ATCC 27853; experiment: MIC, agar dilution method in Mueller Hinton agar; assay type: cell-based; settings: Pseudomonas aeruginosa, ATCC27853, read-out: Minimum Inhibiting Concentration Values
# Experimental: as §1
# Staph. aureus Smith = experiment: MIC, agar dilution method in Mueller Hinton agar; assay type: cell-based; settings: Staphylococcus aureus, read-out: Minimum Inhibiting Concentration Values
# Experimental: as §1
# [2] = test system: Pseudomonas aeruginosa BA; experiment: Efficacy against systemic infections (septicemia) in mice; assay type: in vivo; settings: 96 h, sc (subcutaneous) 1, 3 and 5 h after challenge, survival day 4
# Procedure, shortened: (§2)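 Swiss albino mice (16–20 g) infected i.p. with 4–10× the 48-h LD50 of each strain; compound given p.o. or s.c. at 1 and 3 h post-challenge, plus 5 h for P. aeruginosa BA. Five mice per group; ED50 (mg/kg) by probit analysis of day-4 survival.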
# [3] = test system: Streptococcus pyogenes 15; experiment: as above; assay type: in vivo; settings: 96 h, Streptococcus pyogenes 15, po (orally) 1 and 3 h after challenge, survival day 4
# Procedure, shortened: as §2
# Escherichia coli 25922 = experiment: as above; assay type: in vivo; settings: 96 h, survival day 4
# Procedure, shortened: as §2
# S.pneumoniae PEN-R = experiment: In vitro activity against selected species (MIC50, MIC90, range); assay type: cell-based; settings: Streptococcus pneumoniae; for MIC: MIC range
# E.faecium = experiment: In vitro activity against selected species (MIC50, range); assay type: cell-based; settings: Enterococcus faecium, medium MHA
# Experimental: as §1
# M.catarrhalis = experiment: In vitro activity against selected species (MIC50, MIC90, range); assay type: cell-based; settings: Moraxella catarrhalis, medium IsoB
# E.faecalis [4] = experiment: as above; assay type: cell-based; settings: Enterococcus faecalis, medium IsoB
# N.meningitidis 69480 = experiment: Antibacterial spectrum (MIC), agar dilution; assay type: cell-based; settings: Neisseria meningitidis, read-out: MIC
# Experimental: as §1
# K.pneumoniae 418 = experiment: Antibacterial spectrum (MIC), agar dilution; assay type: cell-based; settings: Klebsiella pneumoniae, read-out: MIC
# Experimental: as §1
# C.difficile ZH1 = experiment: Antibacterial spectrum (MIC), agar dilution; assay type: cell-based; settings: Clostridioides difficile, read-out: MIC
# Experimental: as §1
# S.aureus 734 MRSA = experiment: Antibacterial spectrum (MIC), agar dilution; assay type: cell-based; settings: Staphylococcus aureus, read-out: MIC
# Experimental: as §1
# P.vulgaris 1028 = experiment: Antibacterial spectrum (MIC), agar dilution; assay type: cell-based; settings: Proteus vulgaris, read-out: MIC
# Experimental: as §1
# P.asaccharolyticus 29743 = experiment: Antibacterial spectrum (MIC), agar dilution; assay type: cell-based; settings: Peptoniphilus asaccharolyticus, read-out: MIC
# Experimental: as §1
# Acinetobacter sp.51-156 = experiment: Antibacterial spectrum (MIC), agar dilution; assay type: cell-based; settings: SP.51156, read-out: MIC
# Experimental: as §1
# S.viridans group 016 = experiment: Antibacterial spectrum (MIC), agar dilution; assay type: cell-based; settings: Streptococcus viridans, read-out: MIC
# Experimental: as §1
# L.monocytogenes BK23 = experiment: Antibacterial spectrum (MIC), agar dilution; assay type: cell-based; settings: Listeria monocytogenes, read-out: MIC
# Experimental: as §1
# H.influenzae 1 = experiment: Antibacterial spectrum (MIC), agar dilution; assay type: cell-based; settings: Haemophilus influenzae, read-out: MIC
# Experimental: as §1
# E.coli 25922 = experiment: Antibacterial spectrum (MIC), agar dilution; assay type: cell-based; settings: Escherichia coli, read-out: MIC
# Experimental: as §1
# S.pyogenes B15 = experiment: Antibacterial spectrum (MIC), agar dilution; assay type: cell-based; settings: Streptococcus pyogenes, read-out: MIC
# Experimental: as §1
# P.aeruginosa 27853 = experiment: Antibacterial spectrum (MIC), agar dilution; assay type: cell-based; settings: Pseudomonas aeruginosa, read-out: MIC
# Experimental: as §1
# E.cloacae 908R = experiment: Antibacterial spectrum (MIC), agar dilution; assay type: cell-based; settings: Enterobacter cloacae, read-out: MIC
# Experimental: as §1
# M.morganii 6H-137 = experiment: Antibacterial spectrum (MIC), agar dilution; assay type: cell-based; settings: Morganella morganii, 6H137, read-out: MIC
# Experimental: as §1
# B.fragilis ATCC25285 = experiment: Antibacterial spectrum (MIC), agar dilution; assay type: cell-based; settings: Bacteroides fragilis, read-out: MIC
# Experimental: as §1
# S.pneumoniae Q19 = experiment: Antibacterial spectrum (MIC), agar dilution; assay type: cell-based; settings: Streptococcus pneumoniae, read-out: MIC
# Experimental: as §1
# S.marcescens 69438 = experiment: Antibacterial spectrum (MIC), agar dilution; assay type: cell-based; settings: Serratia marcescens, read-out: MIC
# Experimental: as §1
# E.faecalis 6 = experiment: Antibacterial spectrum (MIC), agar dilution; assay type: cell-based; settings: Enterococcus faecalis, read-out: MIC
# Experimental: as §1
# P.mirabilis 2117 = experiment: Antibacterial spectrum (MIC), agar dilution; assay type: cell-based; settings: Proteus mirabilis, read-out: MIC
# Experimental: as §1
# S.agalactiae QK44 = experiment: Antibacterial spectrum (MIC), agar dilution; assay type: cell-based; settings: Streptococcus agalactiae, read-out: MIC
# Experimental: as §1
# C.freundii 43 = experiment: Antibacterial spectrum (MIC), agar dilution; assay type: cell-based; settings: Citrobacter freundii, read-out: MIC
# Experimental: as §1
# E.cloacae 908SSi = experiment: Antibacterial spectrum (MIC), agar dilution; assay type: cell-based; settings: Enterobacter cloacae, read-out: MIC
# Experimental: as §1
# S.aureus 6538 = experiment: Antibacterial spectrum (MIC), agar dilution; assay type: cell-based; settings: Staphylococcus aureus, read-out: MIC
# Experimental: as §1
# C.freundii 902 = experiment: Antibacterial spectrum (MIC), agar dilution; assay type: cell-based; settings: Citrobacter freundii, read-out: MIC
# Experimental: as §1
# X.maltophilia 1AC739 = experiment: Antibacterial spectrum (MIC), agar dilution; assay type: cell-based; settings: Stenotrophomonas maltophilia, read-out: MIC
# Experimental: as §1
# M.catarrhalis RA21 = experiment: Antibacterial spectrum (MIC), agar dilution; assay type: cell-based; settings: Moraxella catarrhalis, read-out: MIC
# Experimental: as §1
# S.aureus Smith = experiment: Efficacy against systemic infections (septicemia) in mice; assay type: in vivo; settings: Staphylococcus aureus, 96 h, sc 1 and 3 h after challenge, survival day 4
# Procedure, shortened: as §2
# S.aureus MSSA = experiment: In vitro activity against selected species (MIC50, MIC90, range); assay type: cell-based; settings: Staphylococcus aureus, medium MHB (Mueller Hinton Broth)
# S.viridans group = experiment: as above; assay type: cell-based; settings: Streptococcus viridans
# S.aureus MRSA = experiment: as above; assay type: cell-based; settings: Staphylococcus aureus, medium MHA (Mueller Hinton Agar) +NaCl
# Experimental: as §1
# E.faecalis [5] = experiment: as above; assay type: cell-based; settings: Enterococcus faecalis, medium MHA
# Experimental: as §1
# [6] = Escherichia coli 25922, po (orally) 1 and 3 h after challenge
# [7] = medium IsoB (Isosensitest Broth)
smiles,measurement,setting,value
"Nc1nc(/C(=N/OCC(=O)O)C(=O)N[C@@H]2C(=O)N3C(C(=O)O)=C(/C=C4\CCN(C5CC5)C4=O)CS[C@H]23)cs1 [C, [6R-[3(E),6α,7β(Z)]]-7-[[(2-Amino-4-thiazolyl)[(carboxy-methoxy)imino]-acetyl]amino]-3-[[1-cyclopropyl-2-oxo-3-pyrrolidinylidene]-methyl]-8-oxo-5-thia-1-azabicyclo[4.2.0]oct-2-ene-2-carboxylic acid disodium salt]",MIC,Ps. aeruginosa 5712,4 µg/mL
same,MIC,E. coli ATCC 25922,0.0313 µg/mL
same,MIC,Staph. aureus ATCC 29213,16 µg/mL
same,MIC,Str. pneumoniae 6301,0.0625 µg/mL
same,MIC,E. coli TEM-1,0.0313 µg/mL
same,MIC,Str. pyogenes 4,0.125 µg/mL
same,MIC,Prot. vulgaris ATCC 6380,≤ 0.0156 µg/mL
same,MIC,[1],4 µg/mL
same,MIC,Staph. aureus Smith,8 µg/mL
same,ED50,[2],12 mg/kg
same,ED50,[3],0.78 mg/kg
same,ED50,Escherichia coli 25922; [6],< 0.1 mg/kg
"Nc1nc(/C(=N/O)C(=O)N[C@@H]2C(=O)N3C(C(=O)O)=C(/C=C4\CCN(CC(F)(F)F)C4=O)CS[C@H]23)cs1 [E, [6R-[3(E),6α,7β(Z)]]-7-[[(2-Amino-4-thiazolyl)(hydroxyimino)-acetyl]amino]-3-[[1-(2,2,2-trifluoroethyl)-2-oxo-3-pyrrolidinylidene]-methyl]-8-oxo-5-thia-1-azabicyclo[4.2.0]oct-2-ene-2-carboxylic acid]",MIC,S.pneumoniae PEN-R; [7],0.12 to 0.5 µg/mL
same,MIC,S.pneumoniae PEN-R; medium IsoB + 20% serum,0.25 to 0.5 µg/mL
same,MIC50,S.pneumoniae PEN-R; [7],0.25 µg/mL
same,MIC90,S.pneumoniae PEN-R; [7],0.5 µg/mL
same,MIC50,S.pneumoniae PEN-R; medium IsoB + 20% serum,0.5 µg/mL
same,MIC,E.faecium; MIC range,1 to 16 µg/mL
same,MIC50,E.faecium,4 µg/mL
same,MIC,M.catarrhalis; MIC range,1 to 16 µg/mL
same,MIC50,M.catarrhalis,4 µg/mL
same,MIC90,M.catarrhalis,16 µg/mL
same,MIC,E.faecalis [4]; MIC range,0.25 to 2 µg/mL
same,MIC50,E.faecalis [4],0.5 µg/mL
same,MIC90,E.faecalis [4],2 µg/mL
same,MIC,N.meningitidis 69480,≤ 0.06 µg/mL
same,MIC,K.pneumoniae 418,0.12 µg/mL
same,MIC,C.difficile ZH1,8 µg/mL
same,MIC,S.aureus 734 MRSA,8 µg/mL
same,MIC,P.vulgaris 1028,1 µg/mL
same,MIC,P.asaccharolyticus 29743,≤ 0.12 µg/mL
same,MIC,Acinetobacter sp.51-156,16 µg/mL
same,MIC,S.viridans group 016,1 µg/mL
same,MIC,L.monocytogenes BK23,4 µg/mL
same,MIC,H.influenzae 1,0.25 µg/mL
same,MIC,E.coli 25922,0.12 µg/mL
same,MIC,S.pyogenes B15,≤ 0.06 µg/mL
same,MIC,P.aeruginosa 27853,16 µg/mL
same,MIC,E.cloacae 908R,16 µg/mL
same,MIC,M.morganii 6H-137,≤ 0.06 µg/mL
same,MIC,B.fragilis ATCC25285,8 µg/mL
same,MIC,S.pneumoniae Q19,≤ 0.06 µg/mL
same,MIC,S.marcescens 69438,1 µg/mL
same,MIC,E.faecalis 6,1 µg/mL
same,MIC,P.mirabilis 2117,≤ 0.06 µg/mL
same,MIC,S.agalactiae QK44,0.25 µg/mL
same,MIC,C.freundii 43,4 µg/mL
same,MIC,E.cloacae 908SSi,0.25 µg/mL
same,MIC,S.aureus 6538,0.5 µg/mL
same,MIC,C.freundii 902,0.12 µg/mL
same,MIC,X.maltophilia 1AC739,> 32 µg/mL
same,MIC,M.catarrhalis RA21,16 µg/mL
same,ED50,S.aureus Smith,< 1 mg/kg
same,ED50,Escherichia coli 25922; [6],3 mg/kg
same,ED50,"Escherichia coli 25922; Escherichia coli, E.coli 25922, sc 1 and 3 h after challenge",0.07 mg/kg
same,MIC,S.aureus MSSA; MIC range,0.5 to 1 µg/mL
same,MIC50,S.aureus MSSA,1 µg/mL
same,MIC90,S.aureus MSSA,1 µg/mL
same,MIC50,S.viridans group,2 µg/mL
same,MIC90,S.viridans group,2 µg/mL
same,MIC,S.viridans group; MIC range,0.12 to 4 µg/mL
same,MIC,S.aureus MRSA; MIC range,8 to 16 µg/mL
same,MIC50,S.aureus MRSA,8 µg/mL
same,MIC90,S.aureus MRSA,8 µg/mL
same,MIC,E.faecalis [5]; MIC range,1 to 2 µg/mL
same,MIC50,E.faecalis [5],1 µg/mL
same,MIC90,E.faecalis [5],2 µg/mL
